# Laboratory results from patent US20230339900A1, “CASEIN KINASE 1 DELTA MODULATORS” (Janssen Pharmaceutica NV, priority 2020, published 2023).
# Legend:
# [1] = target: human recombinant GST cleaved CSNK1D (Homo sapiens (Human), UniProt P48730); assay: Purified enzyme assay (ADP-Glo Kinase Assay); type: biochemical; conditions: 2 nM CSNK1D, peptide substrate 150 μM, ATP 20 μM, 45 minutes room temperature
# Experimental: In this assay, CSNK1D phosphorylates a substrate peptide PLSRTL-pS-VASLPGL in the presence of ATP. […] This assay monitors CSNK1D kinase activity by measuring the amount of ADP produced in the assay. A substrate mix is prepared by diluting peptide substrate (final concentration 150 μM) with ATP (final concentration 20 μM) in assay buffer (50 mM Tris/HCl pH 7.4+10 mM MgCl2+1 mM DTT+0.1% BSA). The substrate mix is added to each well of a low volume, 384-well, white opaque plate. Test compounds were diluted in HBSS and added in a dose-response to the plate. To start the reaction, 2 nM of constitutively active human recombinant GST cleaved CSNK1D (University of Dundee, clone DU 19064, stored at 0.28 mg/mL in 50 mM Tris/HCl pH 7.5, 150 mM NaCl, 270 mM Sucrose, 0.1 mM EGTA, 0.1% 2-mercaptoethanol, 0.02% Brij-35.1 mM benzamidine, 0.2 mM PMSF) was added to each well and the plate centrifuged for 5 minutes at 1500 rpm. The total volume of each reaction is 5 ul (2 μL of substrate mix, 1 μL of diluted compounds, and 2 μL of human recombinant CSNK1D). The plates are incubated for 45 minutes at room temperature.
# ADP was quantified using the ADP-Glo™ Kinase Assay. ADP-Glo Reagent (5 μL) was added to each well. After a 1 hour incubation at room temperature, Kinase Detection Reagent (10 μL) was added to each well and incubated for 30 minutes. Luminescence was measured on the Perkin Elmer Wallac EnVision 2104 Multi-label Reader. The raw data from the Envision is used to calculate percent activity.
# [2] = target: human CSNK1D tagged with nanoluciferase (Homo sapiens (Human), UniProt P48730); assay: Whole Cell nBRET CSNK1D Binding Assay; conditions: living CHO cells stably expressing human CSNK1D-nanoluciferase; NanoBret tracer 130 nM; 2 hours 37° C.; read-out: CSNK1D BRET IC50
# Experimental: This cellular binding assay uses a bioluminescence resonance energy transfer to measure human CSNK1D binding activity in living Chinese Hamster Ovary (CHO) cells that are stably expressing human CSNK1D tagged with nanoluciferase. The cells were grown to confluency in growth media (DMEM:F12, 50 u/mLPen/Strep, […] glutamine, and 0.6 mg/mL G418) in 10 cm^2 dishes. Cells were seeded onto white, opaque 384-well plates (Corning, cat #3704) at a density of 8,000 cells/well in serum-free OptiMEM and left to incubated overnight at 37° C., […]. The next day, test compounds were added in a dose response to the plate followed by a NanoBret tracer (130 nM). The plate is mixed on an orbital shaker for 30 seconds, then placed in a 37° C. incubator for 2 hours. NanoBret Nano-Glo Substrate solution (20 μL) is added to all wells and incubated for 3 minutes at room temperature. Donor (450 nm) and acceptor (630 nm) emissions are then measured within 10 minutes using a ClarioStar plate reader. The data is used to calculate millibret units, defined as (E630/E450)*1000. Bret emissions are then graphed against the log of compound concentrations and these graphs are used to determine the IC50 of each compound.
# Sequence of human CSNK1D tagged with nanoluciferase (P48730 whole entry): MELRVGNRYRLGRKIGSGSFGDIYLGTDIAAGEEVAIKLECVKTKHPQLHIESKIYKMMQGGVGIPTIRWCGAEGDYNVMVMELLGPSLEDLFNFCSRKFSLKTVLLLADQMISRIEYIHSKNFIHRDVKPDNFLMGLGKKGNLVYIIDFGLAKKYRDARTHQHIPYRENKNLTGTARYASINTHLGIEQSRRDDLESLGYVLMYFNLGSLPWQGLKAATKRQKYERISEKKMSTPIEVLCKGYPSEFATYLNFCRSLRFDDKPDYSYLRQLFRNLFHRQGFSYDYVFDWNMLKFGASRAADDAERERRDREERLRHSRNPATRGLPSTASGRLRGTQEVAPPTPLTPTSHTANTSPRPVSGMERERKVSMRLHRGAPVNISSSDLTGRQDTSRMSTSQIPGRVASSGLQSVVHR
# Sequence of human recombinant GST cleaved CSNK1D (P48730 whole entry): as above
AC50 [1] [µM],IC50 [2] [µM],SMILES
0.551,> 10,"Cn1cc(-c2ccnc3[nH]ccc23)c(-c2ccc(OC(F)F)nc2)n1 [Example 23, 4-[3-[6-(Difluoromethoxy)-3-pyridyl]-1-methyl-pyrazol-4-yl]-1H-pyrrolo[2,3-b]pyridine]"
0.005,0.107,"CCC(=O)Nc1cc(-c2cn(C)nc2-c2ccc(F)cn2)ccn1 [Example 1, N-(4-(3-(5-Fluoropyridin-2-yl)-1-methyl-1H-pyrazol-4-yl)pyridin-2-yl)propionamide]"
0.011,0.103,"CCOc1ccc2nccc(-c3cn(C)nc3-c3ccc(F)cn3)c2n1 [Example 128, 2-Ethoxy-8-[3-(5-fluoro-2-pyridyl)-1-methyl-pyrazol-4-yl]-1,5-naphthyridine]"
0.012,0.236,"Cc1cc(-c2cn(CC(F)(F)F)nc2-c2ccc(F)cn2)c2cn[nH]c2n1 [Example 70, 4-(3-(5-Fluoropyridin-2-yl)-1-(2,2,2-trifluoroethyl)-1H-pyrazol-4-yl)-6-methyl-1H-pyrazolo[3,4-b]pyridine]"
0.107,5,"COc1nc(-c2nn(C)cc2-c2cc(C)nc3[nH]ncc23)ccc1F [Example 41, 4-(3-(5-Fluoro-6-methoxypyridin-2-yl)-1-methyl-1H-pyrazol-4-yl)-6-methyl-1H-pyrazolo[3,4-b]pyridine]"
0.001,0.024,"Cn1cc(-c2ccnc3[nH]cc(Br)c23)c(-c2ccc(F)cn2)n1 [Example 75, 3-Bromo-4-[3-(5-fluoro-2-pyridyl)-1-methyl-pyrazol-4-yl]-1H-pyrrolo[2,3-b]pyridine]"
0.002,0.376,"Cn1cc(-c2c(CC3COC3)cnc3[nH]ccc23)c(-c2ccc(F)cn2)n1 [Example 95, 4-(3-(5-Fluoropyridin-2-yl)-1-methyl-1H-pyrazol-4-yl)-5-(oxetan-3-ylmethyl)-1H-pyrrolo[2,3-b]pyridine]"
0.008,0.165,"Cn1cc(-c2ccnc3[nH]ccc23)c(-c2ccc(F)nc2)n1 [Example 28, 4-[3-(6-Fluoro-3-pyridyl)-1-methyl-pyrazol-4-yl]-1H-pyrrolo[2,3-b]pyridine]"
0.054,0.469,"Cn1cc(-c2ccnc3[nH]ccc23)c(-c2ccncn2)n1 [Example 44, 4-(1-Methyl-3-pyrimidin-4-yl-pyrazol-4-yl)-1H-pyrrolo[2,3-b]pyridine]"
0.023,0.224,"Cn1cc(-c2ccnc3[nH]c(C(F)F)cc23)c(-c2ccc(F)cn2)n1 [Example 84, 2-(Difluoromethyl)-4-(3-(5-fluoropyridin-2-yl)-1-methyl-1H-pyrazol-4-yl)-1H-pyrrolo[2,3-b]pyridine]"
0.01,0.147,"COc1ccc2nccc(-c3cn(C)nc3-c3ccc(F)cn3)c2n1 [Example 103, 8-[3-(5-Fluoro-2-pyridyl)-1-methyl-pyrazol-4-yl]-2-methoxy-1,5-naphthyridine]"
0.012,0.197,"Cc1cc(-c2cn(C)nc2-c2ccc(F)cn2)c2c(C)n[nH]c2n1 [Example 100, 4-[3-(5-Fluoro-2-pyridyl)-1-methyl-pyrazol-4-yl]-3,6-dimethyl-1H-pyrazolo[3,4-b]pyridine]"
0.077,1.72,"Cn1cc(-c2ccnc3c2ccn3C)c(-c2ccc(F)cn2)n1 [Example 144, 4-[3-(5-Fluoro-2-pyridyl)-1-methyl-pyrazol-4-yl]-1-methyl-pyrrolo[2,3-b]pyridine]"
0.17,1.32,"Cn1cc(-c2ccnc3ccccc23)c(-c2ccc(F)cn2)n1 [Example 104, 4-[3-(5-Fluoro-2-pyridyl)-1-methyl-pyrazol-4-yl]quinoline]"
,0.184,"Cn1cc(-c2ccnc3[nH]c(C4COC4)cc23)c(-c2ccc(F)cn2)n1 [Example 92, 4-(3-(5-Fluoropyridin-2-yl)-1-methyl-1H-pyrazol-4-yl)-2-(oxetan-3-yl)-1H-pyrrolo[2,3-b]pyridine]"
